Assay results from US8097585B2, “Methods of treating inflammation by administration of heme oxygenase-1 and products of heme degradation” (priority 2002, dated 2012).

Key:
DSS-colitis = DSS-colitis (acute colitis) mouse model: weight loss, DAI, symptoms, crypt score; assay type: in vivo, C57BL/6 mice
Text: Animals. Pathogen-free male C57BL/6 mice, 4-6 weeks of age (Taconic; C57BL/6×129 svj strain) were used in this example. Mice were kept for one week at 4 mice/cage and fed normal laboratory chow and drinking water ad libitum prior to the experiments. All mice weighed between 22.5 g and 27.7 g at the beginning of the trial. The animal experimentation protocol was reviewed and approved by the Animal Care and Use Committees of the Beth Israel Deaconess Medical Center.
Induction of Colitis. Colitis was induced by feeding mice 5% (wt/v) dextran sodium sulfate (DSS) (MW 40,000; ICN Biomedicals Inc., OH), dissolved in distilled water, for a period of 7 days. The resulting condition was termed “DSS-colitis.” Control animals were fed distilled water ad libitum. The mortality rate in the control group and the CO-treated group was 10% (2/20) and 14% (2/14), respectively. These animals were excluded from the statistical analysis. In the other groups, no mortality occurred during 7 days of 5% DSS treatment.
Experimental Reagents and Treatment Protocol. Cobalt protoporphyrin (CoPPIX), zinc protoporphyrin (ZnPPIX, Porphyrin Products, Logan, Utah) and biliverdin dihydrochloride (ICN Biomedicals Inc., OH) were dissolved in a small amount 0.2 M NaOH, subsequently adjusted to a pH of 7.4 with 1 M HCl, and diluted in 0.9% NaCl. The stock solutions (CoPPIX and ZnPPIX=1 mg/ml, biliverdin=10 mM) were aliquoted and kept at −70° C. until used. Light exposure was limited as much as possible. CoPPIX (5 mg/kg), ZnPPIX (20 mg/kg) and biliverdin (50 μmol/kg) were administered to the mice intraperitoneally (i.p.) 24 hours before induction of DSS-colitis and daily thereafter. Desferoxamine (DFO) was prepared in imidazole buffer (50 mM imidazole, 220 mM NaCl, pH 7.4). DFO was injected subcutaneously (s.c.) twice daily (125 mg/kg) or infused i.p. (130 mg/kg/day; pumping rate 0.5 μl/hour for 8 days) by miniosmotic Alzet™ pumps (Alza Corporation, Palo Alto, Calif.) (Postma et al., Exp. Parasitol. 89(3):323-30 1998). The pumps were installed i.p. 24 hours before induction of colitis. When animals were sacrificed at day 7 of DSS treatment, the pumps were removed and evaluated to determine if DFO application had taken place.
CO gas was administrated exogenously by putting animals in a CO exposure chamber (Otterbein et al., Nat. Med. 6(4):422-8, 2000). Briefly, CO at a concentration of 1% (10,000 parts per million (ppm)) in compressed air was mixed with balanced air (21% oxygen) in a stainless steel mixing cylinder before entering the exposure chamber. CO concentrations were controlled by varying the flow rates of CO in a mixing cylinder before delivery to the chamber. Because the flow rate is primarily determined by the O2 flow, only the CO flow was changed to deliver the final concentration to the exposure chamber. A CO analyzer (Interscan Corporation, Chatsworth, Calif.) was used to measure CO levels continuously in the chamber. Mice were placed in the chamber 24 hours before the induction of the colitis and were kept in the exposure chamber during the whole period of the experiment (total of 8 days). […] Animals were removed daily from the chamber to assess weight and stool.
Evaluation of Symptoms of Colitis. All animals were evaluated clinically on a daily basis. The evaluation of each animal included a measurement of weight, hemoccult positivity and examination of stool for the presence of gross blood and stool consistency. The disease activity index (DAI) was calculated by scoring percent weight loss, intestinal bleeding (no blood; occult blood=hemoccult+; gross blood) and stool consistency (normal stool=well-formed pellets; loose stool=pasty and semiformed stools; diarrhea=liquid stool that stuck to the anus) (Table 1).
The animals were sacrificed, and the whole colon from the colo-cecal junction to the anal verge was removed and gently cleaned of stool. […]

HO-1 = test: HO activity assay on spleen and heart of treated mice; assay type: in vivo, DBA/2J mice; details: 5 mg/kg i.p., one day after treatment
Method: HO activity assay. DBA/2J mice were given either no treatment or CoPPIX or ZnPPIX at a dose of 5 mg/kg, i.p. (n=10 per group). One day after the treatment, the animals were sacrificed, the spleen and the heart were excised, and tissue samples were frozen at −80° C. Frozen tissue samples were homogenized in ice-cold sucrose and Tris-HCl buffer. The microsomal pellet was obtained after centrifugation and re-suspended in MgCl2-potassium phosphate buffer. Sample protein was then incubated with the reaction mixture containing rat liver cytosol, hemin, glucose-6-phosphate, glucose-6-phosphate dehydrogenase and NADPH (Sigma-Aldrich Corporation, St. Louis, Mo.) for 60 minutes at 37° C. The generated bilirubin was measured by reacting with diazotized surfanilic acid to yield azobilirubin using spectrophotometer.

[1] = system: DBA/2 cardiac allografts in B6AF1 recipients; test: Heterotopic cardiac allograft transplantation, graft survival; assay type: in vivo, mice
Method: Animals. Male DBA/2 (H-2^d), B6AF1 (H-2^k/d,b) and FVB (H-2^q) mice were purchased from Jackson Lab. Inc. (Bar Harbor, Me.). They were maintained in the institutional specific-pathogen free facility, which has an appropriate light cycle with free access to water and chow ad libitum, and used for experiments at age of 6-10 weeks.
Cardiac transplantation. DBA2/J and B6AF1 mice were used as donor and recipient, respectively. Heterotopic heart transplantation was carried out according to the procedure of Corry and Russell (Corry et al., Transplant Proc. 5(1):733-5, 1973). […] Secondary heart grafting into the neck was performed using a cuff technique as described previously (Matsuura et al., Transplantation 51(4):896-8, 1991). Briefly, the heart graft was harvested from either DBA2/J (donor strain) or FVB (third-party strain) mice. The right jugular vein and the right common carotid artery of recipient were dissected, and a cuff (polyethylene or polyimide) was connected to these vessels. The graft aorta and pulmonary artery were sleeved over the cuff on the recipient's common carotid artery and the jugular vein, respectively, and fixed with a ligature. After transplantation, beating of the graft was monitored by daily palpation, and scored +1 to +4 according to the strength of graft contractions. Graft rejection was defined as cessation of beating, and was confirmed by direct inspection followed by histological examination.
Donor and recipient mice were treated either with CoPPIX (5 mg/kg/day), ZnPPIX (5 mg/kg/day) or biliverdin (administered once, twice or three times per day at a dose of 50 μmol/kg/dose). All reagents were administered by intraperitoneal (i.p.) injection. Donor animals were treated for 2 days, starting from 2 days before graft harvest (day-2 and day-1). Treatment of recipient mice was initiated one day before transplantation, and continued until 13 days post-transplant (day-1 to day 13). For the experiments using donor splenocyte infusion (DSI) on day-7 (DSI (D-7)), treatments of recipient animals (either with CoPPIX or ZnPPIX) started from day-8 and were terminated on day 6. Recipients received no further treatment. Spleen cells (2×10^7) isolated from DBA/2J mice as described herein were used for DSI treatment. The cells were injected via the penile vein with 200 μl of 0.9% saline solution.
Statistics. Cardiac graft survival was plotted by the Kaplan-Meier method, and a log-rank test was applied to compare statistical significance. Expression levels of HO-1/α-actin protein are expressed as mean±standard deviation. Other data are expressed as mean±standard error of the mean (mean±SEM). Intergroup statistical analysis was performed by one-way ANOVA, and Fisher's PSLD was used for a post-hoc test. A comparison was considered statistically significant when the p-value was <0.05.

recipient splenocytes = test: Mixed lymphocyte culture with splenocytes of treated cardiac allograft recipients; assay type: in vivo, mice; details: harvested 5 days after cardiac transplantation, 72 hours culture with DBA/2 splenocytes; compared to controls
Method: Mixed lymphocyte culture (MLC). Irradiated (25Gy, ^137Cs) DBA/2 splenocytes (5×10^5/well) were co-cultured with responders (5×10^5/well) in a 96 well round bottom plates for 3 days at 37° C., 95% air with 5% CO2. When using cells from cardiac recipients as responders, the co-culture period was 3 days without any further in vitro treatment. ^3H-thymidine (1 μCi/well) was added 16 hours before termination of cell culture, and ^3H-thymidine incorporation was measured.
Induction of HO-1 expression or biliverdin administration suppresses the T cell mediated alloimmune response in vivo. […] Recipient splenocytes harvested 5 days after cardiac transplantation were used as responder cells in an in vitro culture with DBA/2 splenocytes as feeder cells. Proliferation was measured at 72 hours (FIG. 9).

[2] = system: DBA/2 islets in diabetic B6AF1 recipients; test: Allogeneic islet transplantation, graft survival and tolerance test; assay type: in vivo, mice
Method: Animals. Male DBA/2, B6AF1 and DBA/1 mice 6-8 week of age (Jackson) are used in the experiments. Mice were kept for 2 weeks at 4 mice/cage and fed normal laboratory chow before using for the experiment.
Treatment protocol. Recipients were rendered diabetic using streptozotocin (STZ, 225 mg/kg). Five days after STZ administration, animals with two consecutive blood glucose levels exceeding 350 mg/dl are used as recipients. Islets (500) are transplanted under the kidney capsule of the recipients.
Reagents. Cobalt protoporphyrin (CoPPIX, Porphyrin Products, Logan, Utah), biliverdin dihydrochloride and bilirubin (ICN Biomedicals Inc., OH) were dissolved in a small amount of 0.2 M NaOH, subsequently adjusted to a pH of 7.4 with 1 M HCl, and diluted in 1×PBS. The stock solutions (CoPPIX=2 mg/ml, biliverdin=3.2 mg/ml, bilirubin=0.5 mg/ml) were aliquoted and kept at −70° C. until used. Light exposure was limited as much as possible.
Induction of HO-1/Administration of biliverdin/bilirubin. When given to the donor, CoPPIX (20 mg/kg) was given 24 hours before islet isolation to induce HO-1 expression. To verify HO-1 expression in different organs after CoPP treatment, tissue samples are collected 24 hours after treatment and snap frozen in liquid nitrogen. Immunohistological analysis of HO-1 expression is performed using an anti-HO-1 antibody. CoPPIX (20 mg/kg) was administrated to the recipient intraperitoneally (i.p.) on day-1, 1, 3, 5 and 7. Biliverdin (50 μmol/kg) or bilirubin (8.5 μmol/kg) was given intraperitoneally to the donor one hour before islet isolation. For the recipient, biliverdin (50 μmol/kg) or bilirubin ([…]) was administered intraperitoneally either daily or twice per day from day-1 until day 13. No further treatment was given afterwards.
Measurement of Glucose level. Glucose levels were tested twice weekly after transplantation. Glucose levels of <200 mg/dl were considered normoglycemic. Grafts were considered rejected when two consecutive glucose levels were >300 mg/dl.
Tolerance test. The first graft was removed from a number of animals that had islets surviving long-term (longer than 100 days) by doing a nephrectomy. Islets syngeneic with the original donor were transplanted under the contralateral kidney capsule without further treatment. If those second transplanted islets also survived longer than 100 days without further treatment, the recipients were considered tolerant.

CC(=O)N(O)CCCCCNC(=O)CCC(=O)N(O)CCCCCNC(=O)CCC(=O)N(O)CCCCCN [DFO, Desferoxamine]
protective effect on DSS-colitis (DSS-colitis; intraperitoneal osmotic pumps, 130 mg/kg/d): no protective effect was observed | protective effect on DSS-colitis (DSS-colitis; subcutaneous injections of 125 mg/kg twice daily): no protective effect

C=CC1=C(C)c2cc3[n-]c(cc4nc(cc5[n-]c(cc1n2)c(C)c5C=C)C(C)=C4CCC(=O)O)c(CCC(=O)O)c3C.[Zn+2] [ZnPP, zinc protoporphyrin]
effect on natural course of DSS colitis (DSS-colitis; ZnPPIX 20 mg/kg i.p. daily, compared to untreated animals): no significant changes | HO-1 enzymatic activity (HO-1): this was not the case | graft prolongation effect ([1]; ZnPPIX plus DSI (D0), compared to control or DSI (D0) alone): no significant graft prolongation effect | allografts with long-term survival ([1]; ZnPPIX plus DSI (D-7)): 0/9 | graft MST ([1]; ZnPPIX plus DSI (D-7)): 13 days | graft median survival time (MST) ([1]; one dose per day i.p. (ZnPPIX 5 mg/kg; biliverdin 50 μmol/kg), untreated 11.5 days): 11 days | proliferation of recipient splenocytes (recipient splenocytes): did not

C=CC1=C(C)/C(=C/c2[nH]c(Cc3[nH]c(/C=C4\NC(=O)C(C)=C4C=C)c(C)c3CCC(=O)O)c(CCC(=O)O)c2C)NC1=O [bilirubin]
long-term survival of islets ([2]; 2 dose per day (every twelve hours)): 100% | long-term survival of islets ([2]; single dose per day to donor and recipient): 50%
